Source: US20170173186A9, “MURINE WOUND MODEL FOR TESTING PATHOGEN VIRUENCE AND THERAPEUTIC EFFICACY” (priority 2013, published 2017)
Converted amounts (≈) assume the structure as drawn.

Legend:
A. baumannii AB5075 [1] = assay: Murine dorsal wound infection model (neutropenic BALB/c mice), wound area measurement and gross pathology; assay type: in vivo, Acinetobacter baumannii
A. baumannii AB5075 [2] = assay: Murine dorsal wound infection model, percent weight change; assay type: in vivo, Acinetobacter baumannii; settings: for median loss of infection-day body weight: Day 1 post-infection; for maximal median loss of infection-day body weight: maximal loss over days 1 through 6 post-infection; for duration of significantly less weight loss than placebo: post-infection, Kruskal-Wallis test followed by Dunn's post-test
Method: All procedures were performed in accordance with protocol IB02-10 that was approved by the Walter Reed Army Institute of Research (WRAIR)/Navy Medical Research Center (NMRC) Institutional Animal Care and Use Committee (Silver Spring, Md.). Mice received 150 mg/kg and 100 mg/kg cyclophosphamide intraperitoneal (IP) injections, before wounding and infection, on days −4 and −1, respectively (22, 24). On Day 0, the day of wounding and inoculum, mice were anesthetized with ketamine 130 mg/kg (KETASET®, Fort Dodge Animal Health, Fort Dodge, Iowa), xylazine 10 mg/kg (ANASED®, Lloyd Inc. Shenandoah, Iowa), and buprenorphine 0.05 mg/kg (Hospira Inc., Lake Forest, Ill.) injections. Hair was clipped from the cervical to mid-lumbar dorsum, and the skin scrubbed with iodine solution followed by an ethanol rinse. A 6.0 mm disposable skin biopsy punch (VisiPunch, Huot Instruments, LLC, Menomonee Falls, Wis.) was used to create a full-thickness skin defect overlying thoracic spinal column and the adjacent musculature. Twenty-five μL containing 5.0×10^4 AB5075 cells in a PBS suspension were pipetted into the wound, and allowed to absorb for three minutes. A circular cutout (30 mm diameter) of transparent dressing (TEGADERM™Roll, 3M Health Care, St. Paul, Minn.) was placed over the wound and secured with tissue adhesive (VETBOND™, 3M Animal Care, St. Paul, Minn.). […] However, the size of the wound was increased to 6 mm in order to facilitate subsequent punch biopsies to measure bacterial burden in the wound tissue.
(§1) Beginning four hours post-inoculation, mice were treated with either rifampin at 25 mg/kg IP injection once daily, doxycycline 25 mg/kg IP injection twice daily, or an equivalent vehicle control over the course of a six day treatment period (25, 26). On Day 7 the transparent dressing was removed, treatment discontinued, and the wound monitored for closure through Day 25.
All statistical analyses were carried out using Graphpad Prism software. […] CFU burdens were compared via the Kruskal-Wallis test followed by Dunn's multiple comparison tests. All results were considered significant if p<0.05.

A. baumannii AB5075 [3] = assay: Murine dorsal wound infection model, CFU burden in wound tissue (4 mm biopsy punch); assay type: in vivo, Acinetobacter baumannii
A. baumannii AB5075 [4] = assay: Murine dorsal wound infection model, PNA-FISH examination of AB5075 localization in wound tissue; assay type: in vivo, Acinetobacter baumannii; settings: Day 1
Method: All procedures were performed in accordance with protocol IB02-10 that was approved by the Walter Reed Army Institute of Research (WRAIR)/Navy Medical Research Center (NMRC) Institutional Animal Care and Use Committee (Silver Spring, Md.). Mice received 150 mg/kg and 100 mg/kg cyclophosphamide intraperitoneal (IP) injections, before wounding and infection, on days −4 and −1, respectively (22, 24). On Day 0, the day of wounding and inoculum, mice were anesthetized with ketamine 130 mg/kg (KETASET®, Fort Dodge Animal Health, Fort Dodge, Iowa), xylazine 10 mg/kg (ANASED®, Lloyd Inc. Shenandoah, Iowa), and buprenorphine 0.05 mg/kg (Hospira Inc., Lake Forest, Ill.) injections. […]
as §1
One mouse from each treatment group (placebo, rifampin, and doxycycline) and from representative time points (Days 1, 3, and 7) were sacrificed in order to characterize the dissemination of AB5075 within wound tissue via peptide nucleic acid fluorescence in situ hybridization (PNA-FISH) (33). […]

A. baumannii AB5075 [5] = assay: Murine dorsal wound infection model, SEM analysis of biofilm on occlusive dressings and wound tissue; assay type: in vivo, Acinetobacter baumannii
A. baumannii AB5075 [6] = assay: Murine dorsal wound infection model, time course histopathology of wounds (H&E); assay type: in vivo, Acinetobacter baumannii
A. baumannii AB5075 [7] = settings: cited from earlier work
[8] = Day 3 post-infection, BALB/c mice, IP treatment from 4 h post-inoculation (rifampin 25 mg/kg once daily, doxycycline 25 mg/kg twice daily)
[9] = Day 8 post-infection, one day after occlusive dressing removed, six day IP treatment
[10] = Day 15 post-infection, six day IP treatment
[11] = Day 21 post-infection, six day IP treatment

| Structure (SMILES) | median wound size (A. baumannii AB5075 [1]; [8]) [mm^2] | median wound size (A. baumannii AB5075 [1]; [9]) [mm^2] | median wound size (A. baumannii AB5075 [1]; [10]) [mm^2] | median wound size (A. baumannii AB5075 [1]; [11]) [mm^2] | median loss of infection-day body weight (A. baumannii AB5075 [2]) [%] | maximal median loss of infection-day body weight (A. baumannii AB5075 [2]) [%] | duration of significantly less weight loss than placebo (A. baumannii AB5075 [2]) [days] | median CFU burden (A. baumannii AB5075 [3]; 3 days post-infection) | median CFU burden (A. baumannii AB5075 [3]; Day 7 post-infection) | median CFU burden (A. baumannii AB5075 [3]; after 24 hours of infection) | reduction of median CFU burden versus placebo (A. baumannii AB5075 [3]; after 24 hours of infection) [log] | A. baumannii cells in wound bed by Acinetobacter-specific PNA probe (A. baumannii AB5075 [4]) | biofilm on occlusive dressing by SEM (A. baumannii AB5075 [5]; Day 3 (rifampin: Days 3 or 7) post-infection) | bacteria on occlusive dressing by SEM (A. baumannii AB5075 [5]; one day post-infection) | histopathology of wound (H&E) (A. baumannii AB5075 [6]; Day 15) | histopathology of wound (H&E) (A. baumannii AB5075 [6]; Day 23) | MIC (A. baumannii AB5075 [7]) [µg/mL] |
| --- | --- | --- | --- | --- | --- | --- | --- | --- | --- | --- | --- | --- | --- | --- | --- | --- | --- |
| C[C@H]1c2cccc(O)c2C(=O)C2=C(O)[C@]3(O)C(=O)C(C(N)=O)=C(O)[C@@H](N(C)C)[C@@H]3[C@@H](O)[C@@H]21 [doxycycline] | 31.0 | 29.0 | 2.0 | 0.0 | 5.3 | 11.8 | 4 | 5.0×10^4 CFU per 4 mm tissue biopsy punch | 6.2×10^5 CFU per 4 mm tissue biopsy punch | 5.9×10^5 CFU per 4 mm tissue biopsy punch |  |  |  |  |  |  |  |
| CO[C@H]1/C=C/O[C@@]2(C)Oc3c(C)c(O)c4c(O)c(c(/C=N/N5CCN(C)CC5)c(O)c4c3C2=O)NC(=O)/C(C)=C\C=C\[C@H](C)[C@H](O)[C@@H](C)[C@@H](O)[C@@H](C)[C@H](OC(C)=O)[C@@H]1C [rifampin] | 35.0 | 34.5 | 5.5 | 0.0 | 6.7 | 6.8 | 5 | 4.7×10^4 CFU per 4 mm tissue biopsy punch | 6.1×10^5 CFU per 4 mm tissue biopsy punch | 5.7×10^5 CFU per 4 mm tissue biopsy punch | 1 | clearance of A. baumannii cells below the level of detection at all levels of the wound bed | no biofilm formation was observed on dressings | no substantial amount of bacteria observed on the dressing | re-epithelization over the wound was observed | signs of contractile healing and re-epithelized wound beds | 4.0 (≈ 4.86 µM) |
